Assay: Oxygen adsorption-desorption and oxygen affinity (P1/2) of the porphinatoiron(II) complex in toluene solution, by visible absorption spectrum
Type: binding
Method: 46.2 μg (0.03 μmol) of 2-8-(2-methyl-1-imidazolyl)octanoyloxymethyl-5,10,15,20-tetrakis(α,α,α,α-o-(1-methylcyclohexylamido)phenyl)porphinatoiron(III) complex-bromide synthesized in Example 7 was prepare into 10 ml of toluene anhydride solution and the atmosphere in the system was replaced with nitrogen. Then, the solution was mixed and stirred for 2 hours with an aqueous dithionous acid solution in a heterogeneous system to reduce the iron to the iron(II) state. Under nitrogen atmosphere, the toluene layer was extracted, dried over sodium sulfate anhydride and filtrated. The resulting toluene solution was transferred to and sealed in a measuring cell. Thus, a toluene solution of 2-8-(2-methyl-1-imidazolyl)octanoyloxymethyl-5,10,15,20-tetrakis(α,α,α,α-o-(1-methylcyclohexylamido)phenyl)porphinatoiron(II) complex was obtained. The visible absorption spectrum of this solution was λmax: 441, 539, 558 nm, and corresponded to that of a five-coordinated deoxy-type complex in which one imidazole was coordinated.
When oxygen gas was blown into this solution, the spectrum immediately changed to λmax: 424, 552 nm.
Consequently, the adsorption-desorption of oxygen could be continuously carried out by repeating the operation of blowing oxygen and then nitrogen.

2-8-(2-methyl-1-imidazolyl)octanoyloxymethyl-5,10,15,20-tetrakis(α,α,α,α-o-(1-methylcyclohexylamido)phenyl)porphinatoiron(II) complex [Example 11]
oxygen affinity (partial pressure of oxygen when 50% of the entire porphinatoiron is oxygenated (=P1/2)) (25° C.): 20 torr | reversibility of adsorption-desorption of oxygen (oxygen blown, then nitrogen gas for 1 minute, visible absorption spectrum): adsorption-desorption of oxygen occurred reversibly
